Test results as given in patent USRE40086E1, “Method for treating bacterial infection with novel 7-substituted-9-substituted amino 6-demethyl-6-deoxytetracyclines” (Wyeth Holdings Corporation, priority 1991, dated 2008).
Entries after “also recorded” stand apart in the source; their conditions may differ.

Tested on: tetracycline sensitive and resistant Gram-positive and Gram-negative bacteria
Assay: In vitro antibacterial evaluation, MIC by agar dilution (general, Tables I-V and IA)
Type: cell-based
Conditions: summary of Tables I-V

Question: Which “antibacterial activity in vitro (in words)” value does the source give for `CN(C)c1cc(NC=O)c(O)c2c1CC1CC3C(N(C)C)C(O)=C(C(N)=O)C(=O)C3(O)C(O)=C1C2=O` (stereo not shown) here?
Answer: good in vitro activity against tetracycline resistant strains containing the tetM resistance determinant; also recorded: superior to that of minocycline against other isolates
